These results are taken from US20190021995A1, “FORMULATION FOR TREATMENT OF PERIPHERAL JOINTS, SPINAL JOINTS AND/OR EXTRACELLULAR MATRIX ELEMENTS OF CONNECTIVE TISSUE, METHOD OF MANUFACTURE AND USES” (priority 2015, published 2019).

The nature of the series: Studies of glucosamine salts delivered by the transdermal delivery system. From the text: In accordance with the present invention, the above-indicated studies have shown that the transdermal delivery system described above can be used for delivering, for example, any glucosamine salt such as glucosamine hydrochloride, glucosamine sulfate, glucosamine sulfate stabilized with sodium chloride or potassium chloride.

As to `N[C@H]1C(O)O[C@H](CO)[C@@H](O)[C@@H]1O.O=S(=O)(O)O.[Cl-].[K+]` (stereo partly shown) [glucosamine sulfate potassium chloride], the “bioavailability of glucosamine in blood plasma and synovial fluid among glucosamine salts” value was “maximal bioavailability”.
